Data taken from patent publication US10906909B2, “Treatment of cognitive and mood symptoms in neurodegenerative and neuropsychiatric disorders with ALPHA5-containing GABAA receptor agonists” (UWM Research Foundation, Inc., priority 2016, dated 2021).
“Also recorded” adds a separate entry of the source.

Legend:
[1] = test system: rats; assay: Morris water maze; type: in vivo, rat
Method: The potential of MP-III-022 to affect cognitive performance of rats was assessed in 2 well-validated behavioral models. First, Morris water maze experiments were performed in a 2 m diameter circular pool filled to a height of 30 cm with water at 22±1° C. The escape platform (15 cm×10 cm) was submerged 2 cm below the water surface. All experimental details were as described in Savic et al. (Int. J. Neuropsychopharmacol. 2009, 12, 1179-1193). On each of the five consecutive days rats were given one swimming block, consisting of four trials. For each trial the rat was placed in the water at one of four pseudo-randomly determined starting positions. Once the rat has found and mounted the escape platform it was permitted to remain on the platform for 15 s. […] During the acquisition phase, treatments were applied once daily before the swimming block. On the sixth day, rats were given a treatment-free probe test (60 s) without the platform. The probe test was started from the novel, most distant location. Dependent variables chosen for tracking during the acquisition trials were: escape latency (s), total distance traveled (m), path efficiency (the ratio of the shortest possible path length to actual path length), % of distance swam in the peripheral annulus and mean speed (m/s). The selected parameters in the probe test were the distance swam in the target zone […] and % of the distance swam in the peripheral annulus. We tested the effects of 1, 2.5 and 10 mg/kg MP-III-022 and 2 mg/kg diazepam as control drug. The doses of MP-III-022 were selected so that they elicit a mild, moderate and strong positive modulation of α5GABAARs, respectively, in accordance with the analysis of thorough pharmacokinetic and electrophysiological data presented in Stamenic et al. (Eur. J. Pharmacol. 2016, 791, 433-443). The data from the acquisition days in the Morris water maze were averaged for each rat (total data/total number of trials per day) and analyzed using two-way ANOVA with repeated measures (factors: Treatment and Days) with Days as the repeated measure. In the case of significant interaction, separate one-way ANOVAs were conducted to assess the influence of treatment within individual levels of factor Days. The data from the probe test were assessed using one-way ANOVA.

[2] = test system: rats; assay: Social novelty discrimination (SND); type: in vivo, rat; conditions: 10 mg/kg
Method: The SND test compares the social investigation times of an adult rat with a familiar and a novel juvenile rat. Testing consisted of two consecutive juvenile presentations periods to an adult subject: period 1 (P1) and period 2 (P2). At the beginning of P1, one juvenile was placed into the adult home cage and the time spent by the adult investigating the juvenile (anogenital sniffing, licking, close pursuing and pawing) was recorded manually for 5 min. During P2, the same juvenile and a second, novel juvenile were placed in the cage together with the adult, and the times spent by the adult investigating each juvenile were measured independently for 3 min. A different pair of juvenile rats was presented to each adult tested. Manual scoring was conducted in a blinded manner. SND was deliberately impaired in control rats by the parametric manipulation applied, as there was 30 min delay between P1 and P2, and their SND was expected to be low. The influence of MP-III-022 (1, 2.5 or 10 mg/kg) on the thus induced impairment in SND was examined. There were five groups of rats which received one of the following treatments 20 min before P1: solvent, 1.5 mg/kg diazepam and 1, 2.5 and 10 mg/kg MP-III-022. The amount of time investigating familiar (Tf) and novel (Tn) juvenile during P2 was manually scored, and discrimination indexes (Tn−Tf/Tn+Tf) was calculated. Total exploration time during P1 and P2 was also manually recorded.

[3] = test system: mice; assay: Home cage locomotor activity in mice; type: in vivo, mouse; conditions: vs vehicle
Method: Mice were placed in a clean cage, similar to their home-cage (28.2×17.1 cm), without bedding and lid to allow video recording from the top. Tacking was performed and distance travelled (30 min session) was analyzed using ANY-Maze™ tracking software (version 499z) to assess the locomotor activity in a home-cage environment. Animals received a single dose of compound or vehicle solution 1 hour before testing.
Drug preparation and administration: All drugs were diluted in a vehicle solution containing 85% H2O, 14% propylene glycol (Sigma Aldrich) and 1% Tween 80 (Sigma Aldrich). Working solutions were prepared at a concentration of 20 mg/mL and administered i.p. adjusted to the body weight of each animal. Doses used were either 1, 5 or 10 mg/kg. For all locomotor activity experiments, animals were acutely injected i.p. with vehicle or αPAM, 1 hour before the beginning of the test.

[4] = test system: 18 months-old mice; assay: Y-maze alternation task, old mice; type: in vivo, mouse; conditions: 5 mg/kg i.p. 30 min before testing
Method: C57/B16 male mice males were ordered from Jackson Laboratories at 10 months-old and were kept in normal housing conditions (12 h light ON cycle starting at 7 am/water and food ad libitum) until they reached the age of 18 months. A younger cohort of 8 week old animals was used as controls for the experiment. Before testing animals were handled to reduce the anxiety-like response toward the experimenter. Normal aging induced-working memory deficits were assessed using the Y-maze test as described below.
Mice were first habituated to the Y-maze apparatus and distal cues during 2 consecutive days over a 10 min free exploration session (one session per day). The next day, animals performed a training session consisting in seven successive trials separated by a 30 s inter-trial interval (ITI); during this training session, mice were familiarized with the experimental procedure (opening and closing of the doors and confinement into the goal arms). […] Then, the door was opened and the mouse was allowed to enter freely one of the two goal arms; the chosen arm was closed and the choice was recorded. […]
The same general procedure used in the training session was implemented 24 h later, except that the ITI was lengthened to 90 s. […] The mean alternation rate was calculated and was expressed in percentage (number of alternation done by the animal/total number of alternation possible×100)±SEM. […]

[5] = 1 mg/kg i.p. 60 min before testing
[6] = 5 mg/kg i.p. 60 min before testing
[7] = 10 mg/kg i.p. 60 min before testing

Row | Structure (SMILES) | spatial learning and memory (water maze, probe test) ([1]; 1 mg/kg) | escape latency, distance, distance in peripheral ring, path efficiency (acquisition) ([1]; 1 mg/kg vs 2 mg/kg diazepam and 10 mg/kg MP-III-022 groups) | path efficiency on Day II ([1]; 1 mg/kg, Day II of acquisition) | spatial learning during acquisition in the water maze ([1]; MP-III-022 10 mg/kg once daily before swimming block) | spatial learning and memory (water maze, probe test) ([1]; high doses) | discrimination index (social novelty discrimination) ([2]; 20 min before P1, one-sample t-test vs zero) | time exploring the familiar and the novel juvenile rat during P2 ([2]; 20 min before P1, paired t-test) | locomotor activity (distance travelled, 30 min session) ([3]; i.p. 60 min before testing, dose not given) | effect on age-induced working memory impairment (percent alternation rate, Y-maze) [4] | locomotor activity (distance travelled, 30 min session) [3, 5] | locomotor activity (distance travelled, 30 min session) [3, 6] | locomotor activity (distance travelled, 30 min session) [3, 7]
1 | C#Cc1ccc2c(c1)C(c1ccccc1F)=N[C@H](C)c1c(C(=O)NC)ncn1-2 [MP-III-022] | significant improvement in spatial learning and memory processes | shorter escape latencies, shorter distances, swam less distance in the peripheral ring and had higher path efficiencies | higher path efficiencies compared to the control and all other treatment groups | spatial learning incapacitation indistinguishable from that induced by diazepam 2 mg/kg | mimic the cognitive disruption effect of diazepam | significant differences from zero | spent significantly more time in exploring the new rat | no significant difference; also recorded: no effect | – | – | – | –
2 | C#Cc1ccc2c(c1)C(c1ccccc1F)=N[C@H](C)c1c(C(=O)N(C)C)ncn1-2 [GL-II-73, (R)-8-ethynyl-6-(2-fluorophenyl)-N,N,4-trimethyl-4H-benzo[f]imidazo[1,5-a][1,4]diazepine-3-carboxam] | – | – | – | – | – | – | – | – | significant reversal of age-induced impairment in working memory; also recorded: significant pro-cognitive effect | no significant effect; also recorded: no effect on locomotor activity | significant increase in locomotion; also recorded: significant increase in distance traveled | significant increase in locomotion; also recorded: significant increase in distance traveled
3 | C#Cc1ccc2c(c1)C(c1ccccc1F)=N[C@H](C)c1c(C(=O)NC3CC3)ncn1-2 [GL-II-75, (R)—N-cyclopropyl-8-ethynyl-6-(2-fluorophenyl)-4-methyl-4H-benzo[f]imidazo[1,5-a][1,4]diazepine-3-carboxamide] | – | – | – | – | – | – | – | – | significant reversal of age-induced impairment in working memory; also recorded: significant pro-cognitive effect | significant increase in locomotion; also recorded: significant increase in distance traveled | no significant effect; also recorded: no effect on locomotor activity | significant increase in locomotion; also recorded: significant increase in distance traveled
4 | C#Cc1ccc2c(c1)C(c1ccccc1F)=N[C@H](C)c1c(C(=O)NCC)ncn1-2 [GL-II-74, (R)—N-ethyl-8-ethynyl-6-(2-fluorophenyl)-4-methyl-4H-benzo[f]imidazo[1,5-a][1,4]diazepine-3-carboxamide] | – | – | – | – | – | – | – | – | – | no significant effect; also recorded: no effect on locomotor activity | no significant effect; also recorded: no effect on locomotor activity | significant increase in locomotion; also recorded: significant increase in distance traveled
